The values that follow come from patent publication US8188078B2 (Sanofi-Aventis, priority 2007, dated 2012).

The subject of one series is MKN45 cells. In words: Test D: cellular proliferation by 14C-thymidine pulse, MKN45 cells. Particulars: cell line not stated (HCT116 or MKN45). It counts as cell-based. Here is the method:
D) Measurement of Cellular Proliferation by 14C-Thymidine Pulse
The cells are sown in Cytostar 96-well plates under 180 μl for 4 hours at 37° C. and 5% CO2: The HCT116 cells at a rate of 2500 cells per well in DMEM medium+10% foetal calf serum+1% of L-glutamine and the MKN45 cells at a rate of 7500 cells per well in RPMI medium+10% foetal calf serum+1% of L-glutamine. After said incubation for 4 hours, the products are added under 10 μl in 20-times concentrated solution according to the method of dilution stated for ELISA. The products are tested at 10 concentrations in duplicate from 10000 nM to 0.3 nM in steps of 3.
After treatment for 72 h, add 10 μl of 14C-thymidine at 10 μCi/ml to obtain 0.1 μCi per well. The incorporation of 14C-thymidine is measured on a Micro-Beta (Perkin-Elmer) after 24 hours of pulse and 96 h of treatment.
All the stages of the test are automated on the BIOMEK 2000 or TECAN stations.

The target of another series is T1, c-MET (Homo sapiens, UniProt P08581).
T1 construct: The recombinant DNA His-Tev-MET (956-1390) in pFastBac(Invitrogen); His (N, cleaved yes); Tev (TEV protease site) (N, cleaved yes); made in house; host or cells: SF21 insect cells (baculovirus, pFastBac)
In words: Test A: HTRF Met test in 96-well format. It counts as biochemical. Here is the method:
I) Expression and Purification of MET, Cytoplasmic Domain
The recombinant DNA His-Tev-MET (956-1390) in pFastBac(Invitrogen) is transfected in insect cells and after several stages of viral amplification, the final stock of baculovirus is tested for expression of the protein of interest.
After infection for 72 h at 27° C. with the recombinant virus, the SF21 cell cultures are harvested by centrifugation and the cellular deposits are stored at −80° C.
The cellular deposits are resuspended in the lysis buffer (buffer A [50 mM HEPES, pH 7.5, 250 mM NaCl, Glycerol 10%, TECP 1 mM]; +cocktail of protease inhibitors Roche Diagnostics without EDTA, ref 1873580), stirred at 4° C. until homogeneous, then lysed mechanically using apparatus of the “Dounce” type.
After centrifugation, the lysis supernatant is incubated for 2 h at 4° C. with Nickel Chelate resin (His-Trap 6 Fast Flow™, GE HealthCare). After washing with 20 volumes of Tp A, the suspension is packed in a column, and the proteins are eluted with a gradient of buffer B ([…]+290 mM imidazole).
The fractions containing the protein of interest with a view to electrophoretic analysis (SDS PAGE) are collected, concentrated by ultrafiltration (cut-off 10 kDa) and injected in an exclusion chromatography column (Superdex™ 200, GE HealthCare) equilibrated with buffer A.
After enzymatic cleavage of the tag Histidine, the protein is reinjected in a new IMAC Nickel Chelate chromatography column (His-Trap 6 Fast Flow™, GE HealthCare) equilibrated with Buffer A. The fractions eluted with a gradient of buffer B and containing the protein of interest after electrophoresis (SDS PAGE), are finally collected and stored at −80° C.
For the production of autophosphorylated protein, the preceding fractions are incubated for 1 h at room temperature after adding ATP 2 mM, MgCl2 2 mM, and Na3VO4 4 mM. After stopping the reaction with 5 mM of EDTA, the reaction mixture is injected in a HiPrep desalting column (GE HealthCare) equilibrated beforehand with buffer A+Na3VO4 4 mM; the fractions containing the protein of interest (SDS PAGE analysis) are collected and stored at −80° C. The degree of phosphorylation is verified by mass spectrometry (LC-MS), and by peptide mapping.
A) HTRF Met test in 96-well format
In a final volume of 50 μl of enzymatic reaction mixture, final c-MET 5 nM is incubated in the presence of the molecule to be tested (for a final concentration range from 0.17 nM to 10 μM, final DMSO 3%) in buffer MOPS 10 mM pH 7.4, DTT 1 mM, Tween 20 0.01%. The reaction is initiated by the substrate solution to obtain the final concentrations of poly-(GAT) 1 μg/ml, ATP 10 μM and MgCl2 5 mM. After incubation for 10 min at room temperature, the reaction is stopped with a mix of 30 μl to obtain a final solution of Hepes 50 mM pH 7.5, potassium fluoride 500 mM, BSA 0.1% and EDTA 133 mM in the presence of 80 ng Streptavidin 61SAXLB Cis-Bio Int. and 18 ng anti-phosphotyrosine Mab PT66-Europium Cryptate per well. After 2 hours of incubation at room temperature, reading is carried out at 2 wavelengths 620 nm and 665 nm in a reader for the TRACE/HTRF technique and the percentage inhibition is calculated according to the 665/620 ratios.
A general note: In TR-FRET formats the signal depends on donor and acceptor labels being close together.

The target of another series is T2, MET (Homo sapiens, UniProt P08581).
T2 construct: endogenous in cells; host or cells: MKN45 cells
Kind of series: Test C: inhibition of the autophosphorylation of MET, ELISA technique (pppY1230, 1234, 1235), MKN45 cells. It counts as cell-based. The procedure:
C) Inhibition of the Autophosphorylation of MET; ELISA Technique (pppY1230, 1234, 1235)
a) Cellular lysates: Sow the MKN45 cells in a 96-well plate (Cell coat BD polylysine) at 20 000 cells/well under 200 μl of medium RPMI+10% FCS+1% L-glutamine. Leave to adhere to the incubator for 24 h.
The cells are treated on the day after sowing with the products at 6 concentrations in duplicate for 1 h. At least 3 control wells are treated with the same amount of final DMSO.
Dilution of the products: Stock at 10 mM in pure DMSO—range from 10 mM to 30 μM with steps of 3 of pure DMSO—Intermediate dilutions to 1/50 in culture medium then taking of 10 μl added directly to the cells (200 μl): final range from 10000 to 30 nM.
At the end of incubation, carefully remove the supernatant and rinse with 200 μl of PBS. Then put 100 μl of lysis buffer directly in the wells on ice and incubate at 4° C. for 30 minutes. Lysis buffer: 10 mM Tris, HCl pH7.4, 100 mM NaCl, 1 mM EDTA, 1 mM EGTA, 1% Triton X-100, 10% glycerol, 0.1% SDS, 0.5% deoxycholate, 20 mM NaF, 2 mM Na3VO4, 1 mM PMSF and antiprotease cocktail.
The 100 μl of lysates are transferred to a V-bottomed polypropylene plate and ELISA is performed next or the plate is frozen at −80° C.
b) ELISA PhosphoMET BioSource Kit KH00281
In each well of the plate from the kit, add 70 μl of dilution buffer from the kit+30 μL of cell lysate or 30 μl of lysis buffer for the blank. Incubate for 2 h at room temperature, stirring gently.
Rinse the wells 4 times with 400 μl of washing buffer from the kit. Incubate with 100 μl of anti-phospho MET antibodies for 1 h at room temperature.
Rinse the wells 4 times with 400 μl of washing buffer from the kit. Incubate with 100 μl of anti-rabbit HRP antibodies for 30 minutes at room temperature (except for the wells with chromogen only).
Rinse the wells 4 times with 400 μl of washing buffer from the kit. Add 100 μL of chromogen and incubate for 30 minutes in the dark at room temperature.
Stop the reaction with 100 μl of stop solution. Read at once at […] 0.1 second in the Wallac Victor plate reader.
The products of formula (I) as defined above show cellular activity in this test between 10 nM and 10 μM.
A general note: In an ELISA, binding on a coated surface is turned into a signal by an enzyme label.

Where [1] appears, read: Homo sapiens, MKN-45, cellular proliferation by 14C-thymidine pulse.

Structures are written as SMILES.

T2 sequence (P08581 25-1390): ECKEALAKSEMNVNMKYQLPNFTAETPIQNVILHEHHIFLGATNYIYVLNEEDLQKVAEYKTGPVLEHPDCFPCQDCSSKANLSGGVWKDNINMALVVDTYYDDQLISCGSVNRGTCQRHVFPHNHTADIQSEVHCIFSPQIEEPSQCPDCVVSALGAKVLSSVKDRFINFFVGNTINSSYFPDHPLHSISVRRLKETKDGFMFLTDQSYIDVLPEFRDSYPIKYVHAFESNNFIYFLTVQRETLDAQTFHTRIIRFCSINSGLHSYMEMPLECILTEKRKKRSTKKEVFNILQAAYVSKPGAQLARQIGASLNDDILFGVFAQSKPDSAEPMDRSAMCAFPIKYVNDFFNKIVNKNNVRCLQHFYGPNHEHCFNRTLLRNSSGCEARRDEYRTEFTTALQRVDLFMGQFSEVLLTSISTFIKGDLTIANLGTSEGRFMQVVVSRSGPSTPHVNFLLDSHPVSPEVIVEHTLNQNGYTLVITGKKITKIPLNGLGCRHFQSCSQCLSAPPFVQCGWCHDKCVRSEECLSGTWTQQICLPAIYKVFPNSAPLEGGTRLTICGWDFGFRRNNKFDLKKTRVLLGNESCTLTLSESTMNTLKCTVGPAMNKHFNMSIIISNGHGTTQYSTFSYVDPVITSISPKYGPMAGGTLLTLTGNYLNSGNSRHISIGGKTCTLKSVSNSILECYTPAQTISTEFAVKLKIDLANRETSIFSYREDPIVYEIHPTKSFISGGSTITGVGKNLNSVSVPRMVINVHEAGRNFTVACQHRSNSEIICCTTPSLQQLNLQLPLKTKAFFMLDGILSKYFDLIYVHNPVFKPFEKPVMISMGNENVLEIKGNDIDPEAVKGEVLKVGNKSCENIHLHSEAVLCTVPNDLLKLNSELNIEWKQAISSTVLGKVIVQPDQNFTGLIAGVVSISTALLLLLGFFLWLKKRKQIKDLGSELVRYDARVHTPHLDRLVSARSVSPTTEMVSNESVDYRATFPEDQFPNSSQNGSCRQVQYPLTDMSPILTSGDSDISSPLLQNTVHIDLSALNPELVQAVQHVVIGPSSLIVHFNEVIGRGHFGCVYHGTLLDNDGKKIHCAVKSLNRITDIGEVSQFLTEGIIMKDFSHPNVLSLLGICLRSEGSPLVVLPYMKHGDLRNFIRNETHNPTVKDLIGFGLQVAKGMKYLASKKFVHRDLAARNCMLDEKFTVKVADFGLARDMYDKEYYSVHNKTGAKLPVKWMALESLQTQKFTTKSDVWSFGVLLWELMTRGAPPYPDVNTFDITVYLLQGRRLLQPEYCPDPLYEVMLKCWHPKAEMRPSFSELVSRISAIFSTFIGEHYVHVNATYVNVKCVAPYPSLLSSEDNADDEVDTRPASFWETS
T1 sequence (P08581 956-1390): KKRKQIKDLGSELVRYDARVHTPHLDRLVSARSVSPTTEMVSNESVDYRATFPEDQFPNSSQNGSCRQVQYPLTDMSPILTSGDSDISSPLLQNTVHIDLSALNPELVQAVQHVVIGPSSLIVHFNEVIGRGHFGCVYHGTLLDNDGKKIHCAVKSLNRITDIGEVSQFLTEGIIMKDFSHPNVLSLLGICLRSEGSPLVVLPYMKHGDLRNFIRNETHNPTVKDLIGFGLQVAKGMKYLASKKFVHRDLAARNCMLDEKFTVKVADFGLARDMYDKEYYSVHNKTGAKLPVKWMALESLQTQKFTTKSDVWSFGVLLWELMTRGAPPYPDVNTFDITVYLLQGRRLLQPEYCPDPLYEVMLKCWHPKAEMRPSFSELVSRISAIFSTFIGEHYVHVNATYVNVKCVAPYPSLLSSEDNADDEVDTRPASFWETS

In the case of `CC(Oc1ccc2nc(NC(=O)NCCC3CCN(C(=O)OC(C)(C)C)CC3)sc2c1)c1c(Cl)ccc(F)c1Cl` (centres unmarked) [Example 38, 1,1-dimethylethyl 4-{2-[({6-[1-(2,6-dichloro-3-fluorophenyl)ethoxy]-1,3-benzothiazol-2-yl}carbamoyl)amino]ethyl}piperidine-1-carboxylate], the melting point was in the range of 95 to 105 °C. This compound also returned a concentration for half-maximal inhibition (IC50) with MKN45 cells (setting [1]) of more than 10000 nM.
On to `CC(Oc1ccc2nc(NC(=O)NCCN3CCOCC3)sc2c1)c1c(Cl)ccc(F)c1Cl` (single isomer, unassigned) [Example 26, 1-{6-[(1S*)-(2,6-dichloro-3-fluorophenyl)ethoxy]-1,3-benzothiazol-2-yl}-3-(2-morpholin-4-ylethyl)urea], for which the IC50 against c-MET lay within 100 to 10000 nM; against MET, 500 to 10000 nM.
Compound `CNC(=O)OC(C)(C)CCCNC(=O)Nc1nc2cc(F)c(OC(C)c3c(Cl)ccc(F)c3Cl)cc2s1` (centres unmarked) [Example 95, {2-[({6-[1-(2,6-dichloro-3-fluorophenyl)ethoxy]-5-fluoro-1,3-benzothiazol-2-yl}carbamoyl)amino]ethyl}2-methylpropan-2-yl methylcarbamate] had a melting point of 151 to 193 °C.
`O=C(Nc1nc2ccc(OCc3c(Cl)cccc3Cl)cc2s1)C1CC1` [Example 9, N-{6-[(2,6-dichlorobenzyl)oxy]-1,3-benzothiazol-2-yl}cyclopropane carboxamide] yielded a melting point of 178 °C. On c-MET, this compound gave a concentration for half-maximal inhibition (IC50) of less than 100 nM. This compound also came in with a concentration for half-maximal inhibition (IC50) with MKN45 cells (setting [1]) of less than 500 nM.
Take `COCCOC(=O)Nc1nc2cc(F)c(OC(C)c3c(Cl)ccc(F)c3Cl)cc2s1` (centres unmarked) [Example 72]: the IC50 was less than 100 nM against c-MET, 500 to 10000 nM in the series on MKN45 cells (setting [1]) and 500 to 10000 nM against MET.
In the case of `CC(Oc1cc2sc(NC(=O)NC3CC3)nc2cc1F)c1c(Cl)ccc(F)c1Cl` (centres unmarked) [Example 131, 1-cyclopropyl-3-{6-[1-(2,6-dichloro-3-fluorophenyl)ethoxy]-5-fluoro-1,3-benzothiazol-2-yl}urea], the IC50 against c-MET is less than 100 nM; in the series with MKN45 cells (setting [1]) it was less than 500 nM; on MET it was less than 500 nM.
In the case of `CCN(CC)C(CCOC(N)=O)c1nc2cc(F)c(OC(C)c3c(Cl)ccc(F)c3Cl)cc2s1` (centres unmarked) [Example 70, {6-[1-(2,6-dichloro-3-fluorophenyl)ethoxy]-5-fluoro-1,3-benzothiazol-2-yl}3-(diethylamino)propyl carbamate], the melting point fell in the range of 188 to 190 °C.
As for `CCN(CC)CCOC(=O)Nc1nc2cc(F)c(OC(C)c3c(Cl)ccc(F)c3Cl)cc2s1` (centres unmarked) [Example 71], the values for the IC50 on c-MET, in the series on MKN45 cells (setting [1]) and on MET were less than 100 nM, 500 to 10000 nM and 500 to 10000 nM, respectively.
With `CC(Oc1cc2sc(NC(=O)NCCN)nc2cc1F)c1c(Cl)ccc(F)c1Cl` (single isomer, unassigned) [Example 90, 1-(2-aminoethyl)-3-{6-[(1S*)-1-(2,6-dichloro-3-fluorophenyl)ethoxy]-5-fluoro-1,3-benzothiazol-2-yl}urea], the IC50 against c-MET was less than 100 nM; in the series with MKN45 cells (cellular proliferation by 14C-thymidine pulse), 500 to 10000 nM.
`COC(COC(N)=O)c1nc2cc(F)c(OC(C)c3c(Cl)ccc(F)c3Cl)cc2s1` (centres unmarked) [Example 72, {6-[1-(2,6-dichloro-3-fluorophenyl)ethoxy]-5-fluoro-1,3-benzothiazol-2-yl}2-methoxyethyl carbamate] displayed a melting point of 200 to 205 °C.
Regarding `Nc1nc2ccc(OCc3c(F)cccc3F)cc2s1` [Example 12, 6-[(2,6-difluorobenzyl)oxy]-1,3-benzothiazol-2-amine], the melting point amounted to 178 °C. The half-maximal inhibitory concentration (IC50) in the series on MKN45 cells (setting [1]) is more than 10000 nM.
`CCN(CC)C(COC(N)=O)c1nc2cc(F)c(OC(C)c3c(Cl)ccc(F)c3Cl)cc2s1` (centres unmarked) [Example 71, {6-[1-(2,6-dichloro-3-fluorophenyl)ethoxy]-5-fluoro-1,3-benzothiazol-2-yl}2-(diethylamino)ethyl carbamate] had a melting point of 184 to 186 °C.
Still for that read-out and setting: in the case of `CC(Oc1ccc2nc(C(COC(N)=O)N3CCOCC3)sc2c1)c1c(Cl)ccc(F)c1Cl` (centres unmarked) [Example 74, {6-[1-(2,6-dichloro-3-fluorophenyl)ethoxy]-1,3-benzothiazol-2-yl}2-(morpholin-4-yl)ethyl carbamate] it was 235 to 240 °C.
`CC(Oc1cc2sc(NC(=O)NCCNC(=O)OC(C)(C)C)nc2cc1F)c1c(Cl)ccc(F)c1Cl` (centres unmarked) [Example 87]: the results for the IC50 on c-MET, in the series on MKN45 cells (setting [1]) and against MET were less than 100 nM, 500 to 10000 nM and 500 to 10000 nM, respectively.
`CC(Oc1ccc2nc(NC(=O)NCCC3CCN(Cc4ccccc4)CC3)sc2c1)c1c(Cl)ccc(F)c1Cl` (centres unmarked) [Example 52, 1-[2-(1-benzylpiperidin-4-yl)ethyl]-3-{6-[1-(2,6-dichloro-3-fluorophenyl)ethoxy]-1,3-benzothiazol-2-yl}urea]: the half-inhibitory concentration (IC50) was less than 100 nM against c-MET, 500 to 10000 nM in the series with MKN45 cells (setting [1]) and less than 500 nM against MET.
`CC(Oc1cc2sc(NC(=O)NCCCC(C)(C)OC(N)=O)nc2cc1F)c1c(Cl)ccc(F)c1Cl` (centres unmarked) [Example 87, {2-[({6-[1-(2,6-dichloro-3-fluorophenyl)ethoxy]-5-fluoro-1,3-benzothiazol-2-yl}carbamoyl)amino]ethyl}2-methylpropan-2-yl carbamate] yielded a melting point of 230 °C.

For orientation: IC50 means the concentration at which inhibition is half-maximal. Low values mean higher potency, high ones lower potency. The term melting point denotes the temperature of the solid-liquid transition.
